Earlier results in US8603529B2, “Polynucleotide aptamer-based cross-linked materials and uses thereof” (Smartcells, Inc., priority 2009, dated 2013).

Molecular target: avidin (Gallus gallus, UniProt P02701)
Sequence (P02701 25-152, species assumed): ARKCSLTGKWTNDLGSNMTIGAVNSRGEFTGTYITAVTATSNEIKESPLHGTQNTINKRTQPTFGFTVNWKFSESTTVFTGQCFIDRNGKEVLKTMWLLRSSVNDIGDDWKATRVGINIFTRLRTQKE

## O=C(O)CCCC[C@@H]1SC[C@@H]2NC(=O)N[C@@H]21 [biotin]
  binding constant between biotin and avidin: 10^15 M^−1
